Data: EPA's ToxValDB 9.5 (doi:10.2903/j.efsa.2011.1941)

Assays:
Aphidius rhopalosiphi = settings: chronic/long-term
Apis mellifera = settings: acute; duration: 48 hours; dermal; mortality
Daphnia magna = settings: chronic/long-term; duration: 21 days; reproduction
Lepomis macrochirus = settings: acute; duration: 96 hours; mortality
Pimephales promelas = settings: chronic/long-term; duration: 36 days; growth
Typhlodromus pyri = settings: chronic/long-term

| SMILES | NOAEL (Rattus norvegicus; short-term, duration: 6 days) [mg/kg-day] | NOEC (Anas platyrhynchos; reproductive) [mg/kg-day] | LC50 (Anas platyrhynchos; short-term, oral, feed, mortality) [mg/kg-day] | LEL (Aphidius rhopalosiphi; mortality) [g/ha] | LEL (Aphidius rhopalosiphi; reproduction) [g/ha] | LD50 (Apis mellifera) [µg/piece] | LC50 (Colinus virginianus; acute, oral, diet, mortality) [mg/kg-day] | LD50 (Colinus virginianus; acute, oral, mortality) [mg/kg-day] | NOEC (Colinus virginianus; reproduction developmental) [mg/kg-day] | NOEC (Daphnia magna) [mg/L] | LC50 (Lepomis macrochirus) [µg/mL] | NOEC (Pimephales promelas) [mg/L] | LD50 (Rattus norvegicus; acute, oral, mortality) [mg/kg-day] | NOEL (Rattus norvegicus; chronic) [mg/kg-day] | NOAEL (Rattus norvegicus; chronic, duration: 2 years, hematological) [mg/kg-day] | NOAEL (Rattus norvegicus; subchronic, duration: 90 days, oral, hematological) [mg/kg-day] | LC50 (Tagia sp.; acute, duration: 14 days, mortality) [mg/kg] | NOEC (Tagia sp.; chronic/long-term, duration: 56 days, reproduction) [mg/kg] | LEL (Typhlodromus pyri; duration: 7 days, mortality) [g/ha] | LEL (Typhlodromus pyri; reproduction) [g/ha] |
| --- | --- | --- | --- | --- | --- | --- | --- | --- | --- | --- | --- | --- | --- | --- | --- | --- | --- | --- | --- | --- |
| Nc1ccc(OC(F)(F)F)cc1 [4-Trifluoromethoxyaniline] | 0.5 | – | – | – | – | – | – | – | – | – | – | – | – | – | – | – | – | – | – | – |
| O=C(NC(=O)c1ccccc1Cl)Nc1ccc(OC(F)(F)F)cc1 [Triflumuron] | – | 6.9 | 180 | 300 | 300 | > 200 | > 805 | 561 | 1.65 | 3.2e-05 | > 0.0208 | ≥ 0.0228 | > 5000 | 142 | 0.82 | 3.6 | > 500 | > 378 | 384 | 384 |
